# Measurements published in ChEMBL document CHEMBL1149357, “Propionylpiperazines as human melanocortin-4 receptor ligands” (Bioorg Med Chem Lett, 2006).
# Key:
# Melanocortin receptor 4 [1] = molecular target: T1, Melanocortin receptor 4 (Homo sapiens, UniProt P32245); assay: Displacement of [125I]NDP-MSH from human MC4R stably expressed in HEK293 cells; assay type: cell-based
# Mus musculus [2] = assay: AUC in mouse at 10 mg/kg, po; assay type: ADME, organism-based, Plasma; set-up: dose 10 mg/kg, route oral; conditions: in vivo
# [3] = Bioavailability in mouse at 10 mg/kg, po; assay type: ADME, organism-based; conditions: in vivo
# [4] = Cmax in mouse at 10 mg/kg, po; assay type: ADME, organism-based; set-up: dose 10 mg/kg, route oral; conditions: in vivo
# [5] = Half life in mouse at 5 mg/kg, iv; assay type: ADME, organism-based; set-up: dose 5 mg/kg, route intravenous; conditions: in vivo
# [6] = Drug level in mouse brain at 5 mg/kg, iv after 4 hrs; assay type: ADME, organism-based; set-up: dose 5 mg/kg, route intravenous; conditions: read-out: Drug uptake
# [7] = Drug level in mouse brain at 5 mg/kg, iv after 1 hr; assay type: ADME, organism-based; set-up: dose 5 mg/kg, route intravenous; conditions: read-out: Drug uptake
# [8] = Volume of distribution in mouse at 5 mg/kg, iv; assay type: ADME, organism-based; set-up: dose 5 mg/kg, route intravenous; conditions: in vivo, read-out: Vdss
# Melanocortin receptor 4 [9] = molecular target: T1, Melanocortin receptor 4; assay: Activity at MC4R assessed as inhibition of alpha MSH-stimulated cAMP production in HEK293 cells; assay type: functional, cell-based
# [10] = molecular target: Melanocyte-stimulating hormone receptor (Homo sapiens, UniProt Q01726); assay: Displacement of [125I]NDP-MSH from human MC1R stably expressed in HEK293 cells; assay type: cell-based
# Melanocortin receptor 3 = Melanocortin receptor 3 (Homo sapiens, UniProt P41968); assay: Displacement of [125I]NDP-MSH from human MC3R stably expressed in HEK293 cells; assay type: cell-based
# Melanocortin receptor 5 = Melanocortin receptor 5 (Homo sapiens, UniProt P33032); assay: Displacement of [125I]NDP-MSH from human MC5R stably expressed in HEK293 cells; assay type: cell-based
# [11] = Tmax in mouse at 10 mg/kg, po; assay type: ADME, organism-based; set-up: dose 10 mg/kg, route oral; conditions: in vivo
# Mus musculus [12] = assay: AUC in mouse at 5 mg/kg, iv; assay type: ADME, organism-based, Plasma; set-up: dose 5 mg/kg, route intravenous; conditions: in vivo
# [13] = Lipophilicity, log D of the compound; assay type: physicochemical; conditions: octanol/water
# [14] = Clearance in mouse at 5 mg/kg, iv; assay type: ADME, organism-based; set-up: dose 5 mg/kg, route intravenous; conditions: in vivo
# T1 sequence (P32245 whole entry): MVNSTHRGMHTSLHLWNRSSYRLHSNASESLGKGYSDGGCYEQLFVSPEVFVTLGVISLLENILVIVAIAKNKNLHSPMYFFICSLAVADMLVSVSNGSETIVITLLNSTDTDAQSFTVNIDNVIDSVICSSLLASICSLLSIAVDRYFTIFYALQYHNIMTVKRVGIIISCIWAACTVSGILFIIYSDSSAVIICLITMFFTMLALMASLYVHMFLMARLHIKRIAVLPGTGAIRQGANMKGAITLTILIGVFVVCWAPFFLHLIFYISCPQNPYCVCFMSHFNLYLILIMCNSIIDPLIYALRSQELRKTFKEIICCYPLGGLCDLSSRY
# Sequence of Melanocortin receptor 3 (P41968 whole entry): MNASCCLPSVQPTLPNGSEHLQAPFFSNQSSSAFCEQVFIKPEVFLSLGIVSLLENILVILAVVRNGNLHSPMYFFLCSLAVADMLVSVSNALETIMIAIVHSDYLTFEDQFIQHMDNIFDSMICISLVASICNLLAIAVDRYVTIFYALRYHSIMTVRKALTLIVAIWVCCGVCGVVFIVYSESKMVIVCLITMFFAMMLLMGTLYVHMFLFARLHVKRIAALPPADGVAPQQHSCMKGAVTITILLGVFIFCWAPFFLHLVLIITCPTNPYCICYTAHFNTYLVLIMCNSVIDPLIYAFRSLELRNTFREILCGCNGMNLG
# Sequence of Melanocortin receptor 5 (P33032 whole entry): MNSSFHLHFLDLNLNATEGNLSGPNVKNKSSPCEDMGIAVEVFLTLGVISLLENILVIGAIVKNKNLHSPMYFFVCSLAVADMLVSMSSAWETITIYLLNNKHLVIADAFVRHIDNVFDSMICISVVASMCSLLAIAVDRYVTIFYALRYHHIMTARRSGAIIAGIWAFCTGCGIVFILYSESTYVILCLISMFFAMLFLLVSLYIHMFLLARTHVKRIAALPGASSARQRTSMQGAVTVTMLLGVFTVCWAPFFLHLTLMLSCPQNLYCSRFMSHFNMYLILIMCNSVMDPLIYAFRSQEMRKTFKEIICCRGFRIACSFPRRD
Ki (Melanocortin receptor 4 [1]) [nM],Compound,further results
230,COc1cc(CC(C)C(=O)N2CCN(c3ccc(C(F)(F)F)cc3[C@@H](N)CC(C)C)CC2)ccc1Cl (stereo not given in full),–
31,COc1cc(Cl)ccc1C[C@H](C)C(=O)N1CCN(c2ccc(C(F)(F)F)cc2[C@@H](N)CC(C)C)CC1,–
9.1,COc1cc(Cl)ccc1CC(C)C(=O)N1CCN(c2ccc(Cl)cc2[C@@H](N)CC(C)C)CC1 (stereo not given in full),–
71,Cc1cc(CC(C)C(=O)N2CCN(c3ccc(C(F)(F)F)cc3[C@@H](N)CC(C)C)CC2)ccc1Cl (stereo not given in full),–
1100,CC(C)C[C@H](N)c1cc(C(F)(F)F)ccc1N1CCN(C(=O)CC(C)C(=O)c2ccc(Cl)cc2)CC1 (stereo not given in full),–
2500,CC(C)C[C@H](N)c1cc(C(F)(F)F)ccc1N1CCN(C(=O)COc2ccc(Cl)c(Cl)c2)CC1,–
160,COc1ccc(CC(C)C(=O)N2CCN(c3ccc(Cl)cc3[C@@H](N)CC(C)C)CC2)cc1 (stereo not given in full),–
1600,CC(C)C[C@H](N)c1cc(C(F)(F)F)ccc1N1CCN(C(=O)C(C)Cc2ccc(Cl)c(Cl)c2)CC1 (stereo in doubt; 8q),–
3800,COc1ccc(OCC(=O)N2CCN(c3ccc(C(F)(F)F)cc3[C@@H](N)CC(C)C)CC2)cc1,–
1700,Cc1cc(Cl)ccc1C[C@@H](C)C(=O)N1CCN(c2ccccc2[C@H](N)CC(C)C)CC1,–
2600,CC(C)C[C@H](N)c1cc(C(F)(F)F)ccc1N1CCN(C(=O)COc2cccc3ccccc23)CC1,–
4800,CC(C)C[C@H](N)c1cc(C(F)(F)F)ccc1N1CCN(C(=O)CCNC2CCCCC2)CC1,–
6.5,COc1cc(Cl)ccc1C[C@@H](C)C(=O)N1CCN(c2ccc(C(F)(F)F)cc2[C@@H](N)CC(C)C)CC1,–
2600,CC(C)C[C@H](N)c1cc(C(F)(F)F)ccc1N1CCN(C(=O)COc2cccc(Cl)c2)CC1,–
16,CC(C)C[C@H](N)c1ccccc1N1CCN(C(=O)[C@H](C)Cc2ccc(Cl)cc2Cl)CC1,–
820,CC(C)C[C@H](N)c1cc(C(F)(F)F)ccc1N1CCN(C(=O)CCC(=O)c2ccc(Cl)cc2)CC1,–
5.9,Cc1ccc(N2CCN(C(=O)[C@H](C)Cc3ccc(Cl)cc3C)CC2)c([C@@H](N)CC(C)C)c1,–
92,Cc1ccc(CC(C)C(=O)N2CCN(c3ccc(C(F)(F)F)cc3[C@@H](N)CC(C)C)CC2)c(C)c1 (stereo not given in full),–
80,CC(C)C[C@H](N)c1ccccc1N1CCN(C(=O)[C@H](C)Cc2ccc(Cl)cc2)CC1,–
4500,CC(C)C[C@H](N)c1cc(C(F)(F)F)ccc1N1CCN(C(=O)COc2ccccc2Cl)CC1,–

Ki (Melanocortin receptor 4 [1]) [nM],Compound,further results
1500,CC(C)C[C@H](N)c1cc(C(F)(F)F)ccc1N1CCN(C(=O)CSc2ccc(Cl)cc2Cl)CC1,–
14,COc1cc(Cl)ccc1CC(C)C(=O)N1CCN(c2ccc(C(F)(F)F)cc2[C@@H](N)CC(C)C)CC1 (stereo not given in full),AUC (Mus musculus [2]): 249 ng·h/mL; bioavailability [3]: 8.6%; Cmax [4]: 99 ng/mL; half-life [5]: 1.9 h; concentration at 4 h [6]: 122 ng/g; concentration at 1 h [7]: 735 ng/g; Vd [8]: 10.3 L/kg; IC50 (Melanocortin receptor 4 [9]): 1700 nM; Activity [10]: 23%; Ki (Melanocortin receptor 3): 320 nM; Ki (Melanocortin receptor 5): 86 nM; Tmax [11]: 0.25 h; AUC (Mus musculus [12]): 1450 ng·h/mL; logD [13]: > 4; clearance [14]: 62.3 mL/min/kg
26,CC(C)C[C@H](N)c1cc(C(F)(F)F)ccc1N1CCN(C(=O)[C@H](C)Cc2ccc(Cl)cc2Cl)CC1,–
2900,CC(C)C[C@H](N)c1cc(C(F)(F)F)ccc1N1CCN(C(=O)COc2ccc(Cl)cc2)CC1,–
240,Cc1ccc(CC(C)C(=O)N2CCN(c3ccc(C(F)(F)F)cc3[C@@H](N)CC(C)C)CC2)cc1C (stereo not given in full),–
8.8,Cc1ccc(N2CCN(C(=O)[C@H](C)Cc3ccc(Cl)cc3Cl)CC2)c([C@@H](N)CC(C)C)c1,–
20,Cc1ccc(N2CCN(C(=O)[C@H](C)Cc3ccc(Cl)cc3F)CC2)c([C@@H](N)CC(C)C)c1,–
120,CC(C)C[C@H](N)c1cc(C(F)(F)F)ccc1N1CCN(C(=O)C(C)Cc2ccc(Cl)c(Cl)c2)CC1 (stereo in doubt; 8j),–
12,Cc1cc(Cl)ccc1C[C@@H](C)C(=O)N1CCN(c2ccccc2[C@@H](N)CC(C)C)CC1,–
> 10000,CC(C)C[C@H](N)c1cc(C(F)(F)F)ccc1N1CCN(C(=O)CCC(=O)N(C)C)CC1,–
3100,CC(C)C[C@H](N)c1cc(C(F)(F)F)ccc1N1CCN(C(=O)COc2ccc([N+](=O)[O-])cc2)CC1,–
4000,Cc1ccc(OCC(=O)N2CCN(c3ccc(C(F)(F)F)cc3[C@@H](N)CC(C)C)CC2)c(C)c1,–
> 10000,CC(C)C[C@H](N)c1cc(C(F)(F)F)ccc1N1CCN(C(=O)COc2ccccc2)CC1,–
2000,CC(C)C[C@H](N)c1cc(C(F)(F)F)ccc1N1CCN(C(=O)COc2ccc3ccccc3c2)CC1,–
47,CC(C)C[C@H](N)c1cc(C(F)(F)F)ccc1N1CCN(C(=O)C(C)Cc2ccc(Cl)cc2)CC1 (stereo not given in full),–
2200,CCOc1cccc(CC(C)C(=O)N2CCN(c3ccc(C(F)(F)F)cc3[C@@H](N)CC(C)C)CC2)c1 (stereo not given in full),–
4400,Cc1ccc(OCC(=O)N2CCN(c3ccc(C(F)(F)F)cc3[C@@H](N)CC(C)C)CC2)cc1,–
36,CC(C)C[C@H](N)c1cc(C(F)(F)F)ccc1N1CCN(C(=O)C(C)Cc2ccc(Cl)cc2O)CC1 (stereo not given in full),–
67,CC(C)C[C@H](N)c1cc(Cl)ccc1N1CCN(C(=O)C(C)Cc2ccc(Cl)cc2)CC1 (stereo not given in full),–
920,CC(C)C[C@H](N)c1cc(C(F)(F)F)ccc1N1CCN(C(=O)C(C)Cc2cccc(Cl)c2)CC1 (stereo not given in full),–

Ki (Melanocortin receptor 4 [1]) [nM],Compound,further results
2500,CC(C)C[C@H](N)c1cc(C(F)(F)F)ccc1N1CCN(C(=O)COc2cccc(Cl)c2Cl)CC1,–
3600,CC(C)C[C@H](N)c1cc(C(F)(F)F)ccc1N1CCN(C(=O)CNc2ccccc2)CC1,–
390,CC(C)C[C@H](N)c1cc(F)ccc1N1CCN(C(=O)C(C)Cc2ccc(Cl)cc2)CC1 (stereo not given in full),–
38,Cc1cc(Cl)ccc1CC(C)C(=O)N1CCN(c2ccc(C(F)(F)F)cc2[C@@H](N)CC(C)C)CC1 (stereo not given in full),–
140,CC(C)C[C@H](N)c1cc(C(F)(F)F)ccc1N1CCN(C(=O)[C@@H](C)Cc2ccc(Cl)cc2Cl)CC1,–
200,COc1ccc(CC(C)C(=O)N2CCN(c3ccc(C(F)(F)F)cc3[C@@H](N)CC(C)C)CC2)cc1F (stereo not given in full),–
120,COc1ccc(CC(C)C(=O)N2CCN(c3ccc(C(F)(F)F)cc3[C@@H](N)CC(C)C)CC2)cc1 (stereo not given in full),–
25,Cc1ccc(N2CCN(C(=O)[C@H](C)Cc3ccc(Cl)cc3)CC2)c([C@@H](N)CC(C)C)c1,AUC (Mus musculus [2]): 1760 ng·h/mL; bioavailability [3]: 34.4%; Cmax [4]: 267 ng/mL; half-life [5]: 3.5 h; concentration at 4 h [6]: 330 ng/g; concentration at 1 h [7]: 940 ng/g; Vd [8]: 10.2 L/kg; IC50 (Melanocortin receptor 4 [9]): 560 nM; Ki [10]: 3100 nM; Ki (Melanocortin receptor 3): 1300 nM; Ki (Melanocortin receptor 5): 1000 nM; Tmax [11]: 0.5 h; AUC (Mus musculus [12]): 2560 ng·h/mL; logD [13]: 3; clearance [14]: 33.3 mL/min/kg
> 10000,CC(C)C[C@H](N)c1cc(C(F)(F)F)ccc1N1CCN(C(=O)CCC(N)=O)CC1,–
8.1,COc1cc(Cl)ccc1C[C@@H](C)C(=O)N1CCN(c2ccc(C)cc2[C@@H](N)CC(C)C)CC1,–
4100,CC(C)C[C@H](N)c1cc(C(F)(F)F)ccc1N1CCN(C(=O)CCCC2CCCCC2)CC1,–
4600,CC(C)C[C@H](N)c1cc(C(F)(F)F)ccc1N1CCN(C(=O)COc2ccc(O)cc2)CC1,–
5700,CC(C)C[C@H](N)c1cc(C(F)(F)F)ccc1N1CCN(C(=O)CCC2CCCCC2)CC1,–
31,CC(C)C[C@H](N)c1cc(C(F)(F)F)ccc1N1CCN(C(=O)[C@H](C)Cc2ccc(Cl)cc2)CC1,–
4200,CC(C)C[C@H](N)c1cc(C(F)(F)F)ccc1N1CCN(C(=O)COc2ccc(Cl)cc2Cl)CC1,–
67,CC(C)C[C@H](N)c1ccccc1N1CCN(C(=O)[C@H](C)Cc2ccc(Cl)cc2F)CC1,–
2100,CC(C)C[C@H](N)c1cc(C(F)(F)F)ccc1N1CCN(C(=O)Cn2cnc3ccccc32)CC1,–
60,CC(C)C[C@H](N)c1cc(C(F)(F)F)ccc1N1CCN(C(=O)C(C)Cc2ccc(Cl)cc2F)CC1 (stereo not given in full),–
2800,CC(C)C[C@H](N)c1cc(C(F)(F)F)ccc1N1CCN(C(=O)Cc2ccc(Cl)cc2Cl)CC1,–
3100,COc1cccc(CC(C)C(=O)N2CCN(c3ccc(C(F)(F)F)cc3[C@@H](N)CC(C)C)CC2)c1 (stereo not given in full),–
